According to US12083084B2, “Method for enhancing energy production and metabolism in cells” (REPLICON HEALTH OY, priority 2013, dated 2024):
Entries after “also recorded” stand apart in the source; their conditions may differ.

Experiments:
Assay type in all cases: cell-based
[1] = test system: primary human hepatocytes; assay: Cellular ROS detection (DCFDA) in primary human hepatocytes; conditions: primary human hepatocytes, moderate metabolic stress (1.5-2 h after change of medium)
Procedure: (§1) Primary human hepatocytes were purchased from Celsis In Vitro Technologies (1450 South Rolling Road Baltimore, MD 21227, USA). […] According to the information provided by the Celsis, hepatocytes from each donor should have at least 70% viability and more than 5 million viable cells. The medium for the culture of hepatocytes was provided by Celsis. They were InVitroGRO CP (for plating) medium (Z99029) and InVitroGRO HI (for incubation) medium (Z99009). Antibiotics (Torpedo Antibiotics Mix, Z990007) were also from Celsis. The thaw, plating and culture of cells were carried out according to the instruction provided by the Celsis In Vitro Technologies.
(§2) For the measurement of cell viability after treatment of test compound, CytoTox-One Homogeneous Membrane Integrity Assay kit (Promega, G7891) was used. The CytoTox-One Assay is a rapid fluorescent measure of the release of lactate dehydrogenase (LDH) from cells with a damaged membrane. The number of […] cells correlates to the fluorescence intensity determined by a fluorescence plate reader (Hidex Chameleon V multiplate reader, Hidex Oy, Turku, Finland) with excitation 544 nm and emission 590 nm. For the measurement of cellular reactive oxygen species (ROS), DCFDA Cellular ROS Detection Assay Kit from Abcam (ab113851) was used. Reactive oxygen species (ROS) assay kit (ab113851) uses the cell permeant reagent 2′,7′-dichlorofluorescein diacetate (DCFDA), a fluorogenic dye that measures hydroxyl, peroxyl and other ROS activity with the cell. The activity of ROS was measured by a fluorescence plate reader (Hidex) with excitation/emission wavelengths of 485 nm/535 nm.
(§3) The culture of primary hepatocytes was carried out based on the instructions provided by Celsis. After thawing, the cells were suspended in InVitroGRO CP medium. Thereafter the viability of cells was determined using the Trypan Blue exclusion method. Then the concentration of cells was adjusted using InVitroGRO CP medium, so about 30000-35000 cells/100 μl/well can be seeded in collagen I coated 96 well plate (BD, 734-0248).
(§4) After seeding, the cells were cultured overnight in the cell culture incubator (Sanyo MCO 18) at atmosphere of 95% air, 5% CO2 at 37° C. Thereafter, the culture medium for the cells was changed to InVitroGRO Hi (Hi Medium) containing test compound (D-glyceric acid calcium salt dehydrate) at the concentrations of 0, 0.2, 2 and 20 μg/ml (study 1, Table 1.1.1) and 0, 0.4, 2 and 10 μg/ml (study 2, Table 1.1.2).
In study 3 also LGA and HPA were tested and compared to DGA (see FIGS. 11c and 11d) with same doses as in study 2.
In studies 2-4 additional diet with 0.75 mM of palmitic acid (“fatty acid diet”) was added to Hi Medium. Hi Medium in itself contains ample amounts of glucose and fructose and other necessary ingredients for keeping viability of the cell culture at optimal level.
(§5) After 24 h (in study 1) and 20 h (in studies 2-4) incubation medium was renewed. Second renewal of the incubation medium occurred at 48 h in study 1 and at 40 h in other studies. ROS and LDH were measured after 1.5-2 hours after last change of the medium, i.e. in a situation with moderate metabolic stress.
The measurement of cellular reactive oxygen species (ROS) was carried out according to the instruction of Abcam (ab113851). At the end of treatment time point, culture medium was taken away for leaked LDH measurement and cells were washed with 100 μl/well PBS once. Thereafter 100 μl/well of DCDA mix was added and incubated for 45 min at 37° C. in the dark. Then cells were washed once with 1× buffer solution. The fluorescence signal was measured at an excitation wavelength of 485 nm and emission wavelength of 535 nm using the Hidex Chameleon V multiplate reader (Hidex Oy, Turku, Finland).
For the LDH and ROS assays, individual values of each measurement were stored and average value of fluorescence signals of various repeats of each treatment at studied time point were calculated and compared. […]

[2] = test system: primary human hepatocytes; assay: Cell viability by LDH release (CytoTox-One) in primary human hepatocytes; conditions: for viability compared to 0 dose (in words): primary human hepatocytes, standard treatment, moderate metabolic stress
Procedure: as §1, §2, §3, §4, §5
The measurement of LDH from medium (leaked LDH) and from cell and medium (total LDH) was carried out according to the instruction provided by the Promega (G7891). The plate was incubated at an incubator to achieve a temperature of 22° C. Thereafter, equal volume of CytoTox-ONE Reagent to cell culture medium (100 μl) was added to each well and mix for 30 seconds. Then they were incubated for 10 min at 22° C., and then 50 μl of Stop Solution was added to each well. After gentle mixing, the fluorescence signal was measured at an excitation wavelength of 560 nm and emission wavelength of 590 nm using the Hidex Chameleon V multiplate reader (Hidex Oy, Turku, Finland).
For the total LDH measurement, all the steps are same except a 2 μl of Lysis Solution (per 100 μl original volume) will be added to the each well to lyse the cells before CytoTox-ONE Reagents will be added.
For the LDH and ROS assays, individual values of each measurement were stored and average value of fluorescence signals of various repeats of each treatment at studied time point were calculated and compared. […] Viability (LDH) measurements contained 4-6 repeats depending on the study. […]

[3] = test system: human primary hepatocytes; assay: NAD+/NADH quantification in human hepatocytes; design: NADtot / NADH / NAD+ / NAD+/NADH: unit not given here; conditions: donor alpha, new nutrition at 48 h, N = 5; 14 (μM); 48 h + 3 h
Text: For the measurement of total NAD (NADtot=NADH+NAD^+) and NAD^+/NADH ratio, a NAD^+/NADH Quantification kit (MAK037) from Sigma was used. NAD functions as an electron carrier, fluctuating between the oxidized (NAD^+) and reduced (NADH) forms. In addition, NAD^+ plays critical roles in ADP-ribosylation reaction and as a substrate for sirtuins. According to the Sigma instruction, the NAD^+/NADH Quantification kit (Sigma) provides a convenient tool for sensitive detection of NAD, NADH and their ratio without requirement to purify them from samples. Important to notice is that the kit measures NADH and NAD^+ in whole cell including all cell organelles and compartments. Mitochondrial matrix is clearly dominant NADH producer from TCA and beta oxidation (consuming naturally the same amount of NAD^+ in redox reactions). Importantly, formed NADH is also typically oxidized into NAD^+ in the matrix by Complex I in ETC. As is well known anaerobic carbohydrate metabolism, i.e. glycolysis, in cytosol also consumes NAD^+ and produces NADH.
Cell culture in NADH-tests was like in Example 1.1. The change of the medium with DGAcs was conducted at 0 h, 24 h and 48 h. NAD measurements were made at 48+3 h in all cases. For CDP also HPA was tested, and for DOO no new nutrition at 48 h was added, i.e. test was conducted in fasting conditions.

[4] = test system: human hepatocytes; assay: Gene expression from hepatocytes lysates; conditions: donor three, N = 5; 14 (μM)

| Compound | ROS compared to 0 dose/control (in words) [1] | viability compared to 0 dose (in words) [2] | Change in NAD+/NADH vs. Control [3] [%] | NAD+ [3] | NAD+/NADH [3] | NADH [3] | NADtot [3] | CYP2B6 gene expression deviation from control [4] [%] | HO-1 gene expression deviation from control [4] [%] | PGC-1a gene expression deviation from control [4] [%] | decrease of viability ([2]; donor one, High Medium only, equimolar comparison, 20+20+1.5 h, FIG. 6) [%] |
| --- | --- | --- | --- | --- | --- | --- | --- | --- | --- | --- | --- |
| O=C(O)C(=O)CO [HPA, hydroxypyruvate] | decrease ROS levels significantly; also recorded: reduced ROS | modestly increase the viability | −47 | 0.010 | 0.045 | 0.222 | 0.232 | 7 | 1 | −2 |  |
| O=C(O)[C@@H](O)CO [LGA, L-glyceric acid] | decrease ROS levels significantly | modestly increase the viability |  |  |  |  |  |  |  |  |  |
| trolox [Vitamin E, reference compound] |  |  |  |  |  |  |  |  |  |  | ~23 |
